The CheMixHub ionic liquid set
Several values for one entry are separate records, joined by “and”; a condition that tells them apart may be missing. Identical values can stand only once. ± gives the uncertainty stated by the source.

Test: xn = mol fraction of the nth substance listed
Details: 101.3 kPa

CCCC[N+]1(C)CCCCC1.F[P-](F)(F)(F)(F)F + CCCC[n+]1cccc(C)c1.F[P-](F)(F)(F)(F)F + CCCC[N+]1(C)CCCC1.F[P-](F)(F)(F)(F)F
viscosity (333.15 K, x2 = 0.6, x1 = 0.16): 127 ± 4 mPa·s
viscosity (333.15 K, x2 = 0.7, x1 = 0.12): 109 ± 3 mPa·s
viscosity (333.15 K, x2 = 0.8, x1 = 0.08): 95 ± 3 mPa·s
viscosity (333.15 K, x2 = 0.9, x1 = 0.04): 84 ± 2 mPa·s
viscosity (338.15 K, x2 = 0.2, x1 = 0.32): 194 ± 8 mPa·s
viscosity (338.15 K, x2 = 0.3, x1 = 0.28): 163 ± 6 mPa·s
viscosity (338.15 K, x2 = 0.4, x1 = 0.06): 111 ± 3 mPa·s
viscosity (338.15 K, x2 = 0.4, x1 = 0.12): 121 ± 3 mPa·s
viscosity (338.15 K, x2 = 0.4, x1 = 0.18): 125 ± 3 mPa·s
viscosity (338.15 K, x2 = 0.4, x1 = 0.24): 137 ± 4 mPa·s and 138 ± 5 mPa·s
viscosity (338.15 K, x2 = 0.4, x1 = 0.3): 145 ± 4 mPa·s
viscosity (338.15 K, x2 = 0.4, x1 = 0.36): 155 ± 4 mPa·s
viscosity (338.15 K, x2 = 0.4, x1 = 0.42): 165 ± 5 mPa·s
viscosity (338.15 K, x2 = 0.4, x1 = 0.48): 176 ± 5 mPa·s
viscosity (338.15 K, x2 = 0.4, x1 = 0.54): 188 ± 5 mPa·s
viscosity (338.15 K, x2 = 0.5, x1 = 0.2): 117 ± 3 mPa·s
viscosity (338.15 K, x2 = 0.6, x1 = 0.16): 100 ± 3 mPa·s
viscosity (338.15 K, x2 = 0.7, x1 = 0.12): 87 ± 2 mPa·s
viscosity (338.15 K, x2 = 0.8, x1 = 0.08): 76 ± 2 mPa·s
viscosity (338.15 K, x2 = 0.9, x1 = 0.04): 67 ± 1 mPa·s
viscosity (343.15 K, x2 = 0.2, x1 = 0.32): 152 ± 5 mPa·s
viscosity (343.15 K, x2 = 0.3, x1 = 0.28): 129 ± 4 mPa·s
viscosity (343.15 K, x2 = 0.4, x1 = 0.06): 89 ± 2 mPa·s
viscosity (343.15 K, x2 = 0.4, x1 = 0.12): 97 ± 2 mPa·s
viscosity (343.15 K, x2 = 0.4, x1 = 0.18): 100 ± 2 mPa·s
viscosity (343.15 K, x2 = 0.4, x1 = 0.24): 109 ± 3 mPa·s
viscosity (343.15 K, x2 = 0.4, x1 = 0.3): 115 ± 3 mPa·s
viscosity (343.15 K, x2 = 0.4, x1 = 0.36): 122 ± 3 mPa·s
viscosity (343.15 K, x2 = 0.4, x1 = 0.42): 129 ± 3 mPa·s
viscosity (343.15 K, x2 = 0.4, x1 = 0.48): 137 ± 4 mPa·s
viscosity (343.15 K, x2 = 0.4, x1 = 0.54): 146 ± 4 mPa·s
viscosity (343.15 K, x2 = 0.5, x1 = 0.2): 93 ± 2 mPa·s
viscosity (343.15 K, x2 = 0.6, x1 = 0.16): 80 ± 2 mPa·s
viscosity (343.15 K, x2 = 0.7, x1 = 0.12): 70 ± 2 mPa·s
viscosity (343.15 K, x2 = 0.8, x1 = 0.08): 61 ± 1 mPa·s
viscosity (343.15 K, x2 = 0.9, x1 = 0.04): 54 ± 1 mPa·s
viscosity (348.15 K, x2 = 0.2, x1 = 0.32): 121 ± 4 mPa·s
viscosity (348.15 K, x2 = 0.3, x1 = 0.28): 103 ± 3 mPa·s
viscosity (348.15 K, x2 = 0.4, x1 = 0.06): 72 ± 2 mPa·s
viscosity (348.15 K, x2 = 0.4, x1 = 0.12): 78 ± 2 mPa·s
viscosity (348.15 K, x2 = 0.4, x1 = 0.18): 81 ± 2 mPa·s
viscosity (348.15 K, x2 = 0.4, x1 = 0.24): 87 ± 2 mPa·s and 88 ± 2 mPa·s
viscosity (348.15 K, x2 = 0.4, x1 = 0.3): 92 ± 2 mPa·s
viscosity (348.15 K, x2 = 0.4, x1 = 0.36): 97 ± 2 mPa·s
viscosity (348.15 K, x2 = 0.4, x1 = 0.42): 103 ± 3 mPa·s
viscosity (348.15 K, x2 = 0.4, x1 = 0.48): 109 ± 3 mPa·s
viscosity (348.15 K, x2 = 0.4, x1 = 0.54): 116 ± 3 mPa·s
viscosity (348.15 K, x2 = 0.5, x1 = 0.2): 75 ± 2 mPa·s
viscosity (348.15 K, x2 = 0.6, x1 = 0.16): 65 ± 1 mPa·s
viscosity (348.15 K, x2 = 0.7, x1 = 0.12): 57 ± 1 mPa·s
viscosity (348.15 K, x2 = 0.8, x1 = 0.08): 50 ± 1 mPa·s
viscosity (348.15 K, x2 = 0.9, x1 = 0.04): 45 ± 1 mPa·s
viscosity (353.15 K, x2 = 0.2, x1 = 0.32): 98 ± 2 mPa·s
viscosity (353.15 K, x2 = 0.3, x1 = 0.28): 84 ± 2 mPa·s
viscosity (353.15 K, x2 = 0.4, x1 = 0.06): 60 ± 1 mPa·s
viscosity (353.15 K, x2 = 0.4, x1 = 0.12): 64 ± 2 mPa·s
viscosity (353.15 K, x2 = 0.4, x1 = 0.18): 66 ± 2 mPa·s
viscosity (353.15 K, x2 = 0.4, x1 = 0.24): 71 ± 2 mPa·s and 72 ± 2 mPa·s
viscosity (353.15 K, x2 = 0.4, x1 = 0.3): 75 ± 2 mPa·s
viscosity (353.15 K, x2 = 0.4, x1 = 0.36): 79 ± 2 mPa·s
viscosity (353.15 K, x2 = 0.4, x1 = 0.42): 83 ± 2 mPa·s
viscosity (353.15 K, x2 = 0.4, x1 = 0.48): 88 ± 2 mPa·s
viscosity (353.15 K, x2 = 0.4, x1 = 0.54): 93 ± 2 mPa·s
viscosity (353.15 K, x2 = 0.5, x1 = 0.2): 62 ± 1 mPa·s
viscosity (353.15 K, x2 = 0.6, x1 = 0.16): 54 ± 1 mPa·s
viscosity (353.15 K, x2 = 0.7, x1 = 0.12): 47 ± 1 mPa·s
viscosity (353.15 K, x2 = 0.8, x1 = 0.08): 42 ± 1 mPa·s
viscosity (353.15 K, x2 = 0.9, x1 = 0.04): 37 ± 1 mPa·s
viscosity (358.15 K, x2 = 0.2, x1 = 0.32): 80 ± 2 mPa·s
viscosity (358.15 K, x2 = 0.3, x1 = 0.28): 69 ± 1 mPa·s
viscosity (358.15 K, x2 = 0.4, x1 = 0.06): 50 ± 1 mPa·s
viscosity (358.15 K, x2 = 0.4, x1 = 0.12): 53 ± 1 mPa·s
viscosity (358.15 K, x2 = 0.4, x1 = 0.18): 55 ± 1 mPa·s
viscosity (358.15 K, x2 = 0.4, x1 = 0.24): 59 ± 1 mPa·s
viscosity (358.15 K, x2 = 0.4, x1 = 0.3): 62 ± 1 mPa·s
viscosity (358.15 K, x2 = 0.4, x1 = 0.36): 65 ± 2 mPa·s
viscosity (358.15 K, x2 = 0.4, x1 = 0.42): 68 ± 2 mPa·s
viscosity (358.15 K, x2 = 0.4, x1 = 0.48): 71 ± 2 mPa·s
viscosity (358.15 K, x2 = 0.4, x1 = 0.54): 75 ± 2 mPa·s
viscosity (358.15 K, x2 = 0.5, x1 = 0.2): 51 ± 1 mPa·s
viscosity (358.15 K, x2 = 0.6, x1 = 0.16): 45 ± 1 mPa·s
viscosity (358.15 K, x2 = 0.7, x1 = 0.12): 39 ± 1 mPa·s
viscosity (358.15 K, x2 = 0.8, x1 = 0.08): 35 ± 1 mPa·s
viscosity (358.15 K, x2 = 0.9, x1 = 0.04): 31 ± 1 mPa·s
viscosity (363.15 K, x2 = 0.2, x1 = 0.32): 66 ± 1 mPa·s
viscosity (363.15 K, x2 = 0.3, x1 = 0.28): 57 ± 1 mPa·s
viscosity (363.15 K, x2 = 0.4, x1 = 0.06): 42 ± 1 mPa·s
viscosity (363.15 K, x2 = 0.4, x1 = 0.12): 45 ± 1 mPa·s
viscosity (363.15 K, x2 = 0.4, x1 = 0.18): 46 ± 1 mPa·s
viscosity (363.15 K, x2 = 0.4, x1 = 0.24): 49 ± 1 mPa·s
viscosity (363.15 K, x2 = 0.4, x1 = 0.3): 51 ± 1 mPa·s
viscosity (363.15 K, x2 = 0.4, x1 = 0.36): 54 ± 1 mPa·s
viscosity (363.15 K, x2 = 0.4, x1 = 0.42): 56 ± 1 mPa·s
viscosity (363.15 K, x2 = 0.4, x1 = 0.48): 59 ± 1 mPa·s
viscosity (363.15 K, x2 = 0.4, x1 = 0.54): 62 ± 1 mPa·s
viscosity (363.15 K, x2 = 0.5, x1 = 0.2): 43 ± 1 mPa·s
viscosity (363.15 K, x2 = 0.6, x1 = 0.16): 38 ± 1 mPa·s
viscosity (363.15 K, x2 = 0.7, x1 = 0.12): 33 ± 1 mPa·s
viscosity (363.15 K, x2 = 0.8, x1 = 0.08): 30 ± 1 mPa·s
viscosity (363.15 K, x2 = 0.9, x1 = 0.04): 27 ± 1 mPa·s
